Assay results: patent US11274332B2, “Methods of administering 3,4-diaminopyridine” (SERB SA, priority 2011, dated 2022)

Tests used:
[1] = molecular target: T1, cloned human Kv1.2 potassium channel (Homo sapiens, UniProt P16389); test: PatchXpress inhibition of cloned human Kv1.2 in HEK293 cells (Example 6); type: cell-based; details: hKv1.2, up to 3000 μM
T1 construct: expressed in transfected cells
Description: (§1) The objective of this study was to examine the in vitro effects and determine the […] of 3,4-DAP phosphate and the metabolite N-(4-aminopyridin-3-yl) acetamide HCl on the following ion channels: cloned human Kv1.1 potassium channel (encoded by the human KCNA1 gene, expressed in HEK293 cells), cloned human Kv1.2 potassium channel (encoded by the human KCNA2 gene, expressed in HEK293 cells), cloned human Kv1.3 potassium channel (encoded by the human KCNA3 gene, expressed in CHO cells), cloned human Kv1.4 potassium channel (encoded by the human KCNA4 gene, expressed in HEK293 cells), cloned human Kv1.5 potassium channel (encoded by the human KCNA5 gene and expressed in CHO cells), responsible for IKur, ultra-rapid delayed rectifier potassium current.
(§2) Chemicals used in solution preparation were purchased from Sigma-Aldrich (St. Louis, Mo.), unless otherwise noted, and were of ACS reagent grade purity or higher. Stock solutions of each test article (100 mM, 30 mM and 1.00 mM 3,4-DAP phosphate and 100 mM N-(4-aminopyridin-3-yl)acetamide) were prepared in sterile water and stored refrigerated. […]
(§3) In preparation for a recording session, intracellular solution was loaded into the intracellular compartments of the Sealchip16. […] After establishment of a whole-cell configuration, membrane currents were recorded using dual-channel patch clamp amplifiers in the PatchXpress®. […]

[2] = molecular target: T2, cloned human Kv1.4 potassium channel (Homo sapiens, UniProt P22459); test: PatchXpress inhibition of cloned human Kv1.4 in HEK293 cells (Example 6); type: cell-based; details: hKv1.4, up to 3000 μM
T2 construct: expressed in transfected cells
Description: as §1, §2, §3

T1 sequence (P16389 whole entry): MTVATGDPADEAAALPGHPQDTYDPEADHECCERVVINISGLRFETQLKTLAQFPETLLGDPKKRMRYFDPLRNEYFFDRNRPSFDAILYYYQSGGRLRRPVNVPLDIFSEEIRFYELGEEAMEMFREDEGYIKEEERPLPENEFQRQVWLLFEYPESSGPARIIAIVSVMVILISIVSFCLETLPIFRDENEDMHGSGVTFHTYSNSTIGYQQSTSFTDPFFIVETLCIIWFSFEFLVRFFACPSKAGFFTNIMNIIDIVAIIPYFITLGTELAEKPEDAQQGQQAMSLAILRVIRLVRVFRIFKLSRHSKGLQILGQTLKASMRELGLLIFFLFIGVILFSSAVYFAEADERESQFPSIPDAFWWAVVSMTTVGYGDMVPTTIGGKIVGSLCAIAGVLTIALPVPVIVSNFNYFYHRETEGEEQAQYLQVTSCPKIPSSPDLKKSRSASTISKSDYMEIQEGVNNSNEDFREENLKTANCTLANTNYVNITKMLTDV
T2 sequence (P22459 whole entry): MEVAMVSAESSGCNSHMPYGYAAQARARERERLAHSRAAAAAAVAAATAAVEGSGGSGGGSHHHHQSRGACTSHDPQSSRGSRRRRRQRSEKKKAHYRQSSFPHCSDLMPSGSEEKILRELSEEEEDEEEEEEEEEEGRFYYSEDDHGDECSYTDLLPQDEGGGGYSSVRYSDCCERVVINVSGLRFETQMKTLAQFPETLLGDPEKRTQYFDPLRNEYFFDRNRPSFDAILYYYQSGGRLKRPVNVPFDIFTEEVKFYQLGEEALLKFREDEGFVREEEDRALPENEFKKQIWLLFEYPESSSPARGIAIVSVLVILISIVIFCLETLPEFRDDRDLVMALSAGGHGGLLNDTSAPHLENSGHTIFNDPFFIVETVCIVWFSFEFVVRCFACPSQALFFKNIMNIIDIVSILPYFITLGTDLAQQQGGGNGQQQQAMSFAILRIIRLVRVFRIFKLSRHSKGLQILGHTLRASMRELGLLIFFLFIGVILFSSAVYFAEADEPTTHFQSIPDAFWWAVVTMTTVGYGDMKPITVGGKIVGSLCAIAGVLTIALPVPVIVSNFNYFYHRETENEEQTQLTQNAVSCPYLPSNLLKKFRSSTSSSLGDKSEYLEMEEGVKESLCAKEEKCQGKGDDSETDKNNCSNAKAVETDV

- activity on K+ channel [1]: inactive
- activity on K+ channel ([1]; listed as N-acetyl metabolite): not active
- activity on K+ channel [2]: inactive
- activity on K+ channel ([2]; listed as N-acetyl metabolite): not active
SMILES: CC(=O)Nc1cnccc1N [3-N-acetyl amifampridine, N-(4-aminopyridin-3-yl)acetamide]
